From patent US8688387B2, “Method for the determination of intra- and intermolecular interactions in aqueous solution” (Bayer CropScience AG, priority 2006, dated 2014)

Experiments:
helix [1] = conditions: aqueous solution, compared to the helices with thymidin; cited from earlier work
helix [2] = assay: Destabilization of a helix in which thymidin is replaced; conditions: corresponding to the 16 kJ/mol destabilization
Source text: The importance of a complete H-bond network in nucleotide recognition has been investigated. Molecular recognition usually involves several H-bonds. The influence of unsatisfied interfacial H-bond functions can be seen in the destabilization of a helix in which thymidin is replaced by difluortoluoldesoxynucleosid. The experiments have shown that these helices exist in aqueous solution but are destabilized by 16 kJ/mol compared to the helices with thymidin (Moran et al., J. Am. Chem. Soc. 1997, 119: 2056-2057). The authors conclude that the specificity of base pair recognition may not be due to H-bonding but to space filling since the modified base is incorporated into the double helix even though the H-bond cannot be made. […] This value agrees well with the mismatched pairing observed for the incorporation of nucleotides into DNA by polymerase enzymes (1 in 10^3-10^5) (Loeb and Kunkel, Annu. Rev. Biochem. 1982: 52, 429) and the preference of correct tRNA compared to near cognate tRNA in the codon:anticodon recognition (1 in 10^−3.5) (Thompson and Karim, Proc. Natl. Acad. Sc. U.S.A. 1982, 79: 4922-26).

SMILES: Cc1cc([C@H]2C[C@H](O)[C@@H](CO)O2)c(F)cc1F [difluortoluoldesoxynucleosid]
- destabilization of helices (helix [1]): 3.82 kcal/mol
- reduced affinity (helix [2]): 1000-10000 times
